Drawing on ChEMBL document CHEMBL3865812, “Selective killing of cancer cells with triterpenoic acid amides - The substantial role of an aromatic moiety alignment” (Eur J Med Chem, 2016), this text covers EC50, solubility and Activity for 18 compounds.

The EC50 is the concentration at which the effect is half-maximal. Low readings indicate a more potent agent, high ones a less potent agent.

Calls of active or inactive are those of the source. The rule behind the calls is not given here.

Data set [1] can be described thus: Cytotoxicity against human A549 cells measured after 96 hrs by SRB assay. The data set is classed as functional, cell-based. As to conditions: A549, 96 h.
A short description of data set [2]: Solubility of compound in water. It counts as physicochemical. As to conditions: buffer.
The nature of data set [3]: Cytotoxicity against human 518A2 cells measured after 96 hrs by SRB assay. It counts as functional, cell-based. The note with it: 518A2, 96 h. A general note: The SRB assay estimates cell density from bound dye.
Data set [4] can be described thus: Cytotoxicity against human A2780 cells measured after 96 hrs by SRB assay. The data set is classed as functional, cell-based. As to conditions: A2780, 96 h.
Data set [5] is described as follows: Cytotoxicity against human 8505C cells measured after 96 hrs by SRB assay. It counts as functional, cell-based.
Data set [6] is described as follows: Cytotoxicity against human MCF7 cells measured after 96 hrs by SRB assay. It counts as functional, cell-based. The note with it: MCF7, 96 h.
Data set [7] is described as follows: Cytotoxicity against mouse NIH/3T3 cells measured after 96 hrs by SRB assay. The data set is classed as toxicity, NIH3T3.
The nature of data set [8]: Cytotoxicity against human HT-29 cells measured after 96 hrs by SRB assay. The data set is classed as functional, cell-based. As to conditions: HT-29, 96 h.
The nature of data set [9]: Cell cycle arrest in human A2780 cells assessed as accumulation at S-phase at 6 uM measured after 24 hrs by propidium iodide staining based FACS analysis. The data set is classed as functional. For orientation: A flow cytometer gives signals particle by particle.
The subject of data set [10] is A2780. Put plainly: Induction of apoptosis in human A2780 cells assessed as increase in apoptotic cells at 6 uM measured after 2 days by Annexin V/FITC/propidium iodide staining-based FACS analysis. It counts as functional, cell-based.
Data set [11] relates to A2780. Put plainly: Induction of apoptosis in human A2780 cells assessed as secondary necrotic cells at 6 uM measured after 2 days by Annexin V/FITC/propidium iodide staining-based FACS analysis. The data set is classed as functional, cell-based.
Data set [12] is described as follows: Cell cycle arrest in human A2780 cells assessed as decrease in G1 peak at 6 uM measured after 24 hrs by propidium iodide staining based FACS analysis. The data set is classed as functional.
Data set [13] can be described thus: Cell cycle arrest in human A2780 cells assessed as decrease in accumulation of cells at S-phase at 6 uM measured after 48 hrs by propidium iodide staining based FACS analysis. The data set is classed as functional.
Data set [14] can be described thus: Cell cycle arrest in human A2780 cells assessed as sub-G1 peak appearance at 6 uM measured after 48 hrs by propidium iodide staining based FACS analysis. The data set is classed as functional.
Data set [15] in a line: Cell cycle arrest in human A2780 cells assessed as loss of G2 peak at 6 uM measured after 24 hrs by propidium iodide staining based FACS analysis. The data set is classed as functional.

For `CC(=O)O[C@H]1C[C@]2(C)[C@H]3CC=C4[C@@H]5[C@@H](C)[C@H](C)CC[C@]5(C(=O)Nc5cccc6cccnc56)CC[C@@]4(C)[C@]3(C)CC[C@H]2C(C)(C)[C@H]1OC(C)=O`, the EC50 was above 30 µM in data set [1]; 13.3 µM in [3]; 6.7 µM in [4]; above 30 µM in data set [5]; above 30 µM in data set [6]; above 30 µM in data set [8]. In data set [2], the solubility result is recorded as “Insoluble”. The concentration giving a half-maximal response (EC50) at 96 h in data set [7] was above 30 µM.

In the case of `CC(=O)O[C@H]1C[C@]2(C)[C@H]3CC=C4[C@@H]5[C@@H](C)[C@H](C)CC[C@]5(C(=O)O)CC[C@@]4(C)[C@]3(C)CC[C@H]2C(C)(C)[C@H]1OC(C)=O`, the EC50 amounted to 15.6 µM in data set [1]; 17.9 µM in data set [3]; 17.9 µM in data set [4]; 15.6 µM in data set [5]; 10.4 µM in data set [6]; 16.2 µM in [8]. In data set [7], this compound registered an EC50 at 96 h of 12.7 µM.

For `CC(=O)O[C@H]1C[C@]2(C)[C@H]3CC=C4[C@@H]5[C@@H](C)[C@H](C)CC[C@]5(C(=O)Nc5cccc6ncccc56)CC[C@@]4(C)[C@]3(C)CC[C@H]2C(C)(C)[C@H]1OC(C)=O`, the EC50 in [1] is 3.7 µM; in data set [3], 2 µM; in data set [4] it was 2.7 µM; in data set [5] it was 3.2 µM; in [6], 5.5 µM; in data set [8] it was 3.6 µM. In data set [7], this compound returned an EC50 at 96 h above 60 µM.

`CC(=O)O[C@H]1C[C@]2(C)[C@H]3CC=C4[C@@H]5[C@@H](C)[C@H](C)CC[C@]5(C(=O)Nc5ccnc6ccccc56)CC[C@@]4(C)[C@]3(C)CC[C@H]2C(C)(C)[C@H]1OC(C)=O`: the EC50 in data set [1] was 8.2 µM; in data set [3] it was 6.4 µM; in data set [4], 3.5 µM; in [5] it was 6.6 µM; in data set [6], 4 µM; in [8], 5.5 µM. In addition, in data set [2], the solubility result was “Insoluble”. Also, in [7], it took 5.2 µM to reach a half-maximal effect (EC50 at 96 h).

As for `CC(=O)O[C@H]1C[C@]2(C)[C@H]3CC=C4[C@@H]5CC(C)(C)CC[C@]5(C(=O)Nc5ccncc5)CC[C@@]4(C)[C@]3(C)CC[C@H]2C(C)(C)[C@H]1OC(C)=O`, the EC50 in [1] stood at 4 µM; in [3], 4.2 µM; in data set [4] it was 1.6 µM; in data set [5], 4.1 µM; in data set [6] it was 3.1 µM; in data set [8] it was 2.7 µM. The compound further returned an EC50 at 96 h in data set [7] of 1.8 µM.

Consider `CC(=O)O[C@H]1C[C@]2(C)[C@H]3CC=C4[C@@H]5[C@@H](C)[C@H](C)CC[C@]5(C(=O)Nc5cnc6ccccc6c5)CC[C@@]4(C)[C@]3(C)CC[C@H]2C(C)(C)[C@H]1OC(C)=O`, for which the EC50 in data set [1] was determined as 3.4 µM; in data set [3], 2.5 µM; in [4], 2.8 µM; in [5], 3.1 µM; in data set [6], 3.2 µM; in data set [8], 6.5 µM. Moreover, the solubility entry in [2] is listed as “Insoluble”. Further, the EC50 at 96 h in [7] came out at 2.2 µM.

For the compound `CC(=O)O[C@H]1C[C@]2(C)[C@H]3CC=C4[C@@H]5[C@@H](C)[C@H](C)CC[C@]5(C(=O)Nc5ccc6ncccc6c5)CC[C@@]4(C)[C@]3(C)CC[C@H]2C(C)(C)[C@H]1OC(C)=O`, the EC50 was found to be 5.3 µM in data set [1]; 4.2 µM in data set [3]; 4.2 µM in data set [4]; 4.3 µM in [5]; 6.5 µM in data set [6]; 9.2 µM in data set [8]. The solubility entry in data set [2] is listed as “Insoluble”. In addition, in data set [7], the EC50 at 96 h came to 0.9 µM.

Regarding `CC(=O)O[C@H]1C[C@]2(C)[C@H]3CC=C4[C@@H]5CC(C)(C)CC[C@]5(C(=O)Nc5cccnc5)CC[C@@]4(C)[C@]3(C)CC[C@H]2C(C)(C)[C@H]1OC(C)=O`, the EC50 in data set [1] was found to be 2.8 µM; in data set [3] it was 1.7 µM; in data set [4], 0.9 µM; in [5], 2.3 µM; in data set [6], 2 µM; in [8], 2.2 µM. For the same compound, in data set [7], it took 2.4 µM to reach a half-maximal effect (EC50 at 96 h).

As for `CC(=O)O[C@H]1C[C@]2(C)[C@H]3CC=C4[C@@H]5CC(C)(C)CC[C@]5(C(=O)Nc5ccc6cccnc6c5)CC[C@@]4(C)[C@]3(C)CC[C@H]2C(C)(C)[C@H]1OC(C)=O`, the EC50 in data set [1] worked out at 2.6 µM; in data set [3] it was 1.6 µM; in data set [4] it was 1 µM; in data set [5], 1.6 µM; in data set [6], 1.4 µM; in data set [8], 1.3 µM. Besides, in [2], the solubility entry is “Insoluble”. Also, a half-maximal effect in data set [7] (EC50 at 96 h) was put at 0.7 µM.

On to `CC(=O)O[C@H]1C[C@]2(C)[C@H]3CC=C4[C@@H]5[C@@H](C)[C@H](C)CC[C@]5(C(=O)Nc5cccnc5)CC[C@@]4(C)[C@]3(C)CC[C@H]2C(C)(C)[C@H]1OC(C)=O`, for which the EC50 in data set [1] was 3.5 µM; in [3], 2 µM; in data set [4], 2 µM; in [5] it was 2.7 µM; in data set [6], 3.5 µM; in [8], 3.2 µM. Besides, the midpoint of the response in [7], the EC50 at 96 h, lay at 4.2 µM.

`CC(=O)O[C@H]1C[C@]2(C)[C@H]3CC=C4[C@@H]5[C@@H](C)[C@H](C)CC[C@]5(C(=O)Nc5ccncc5)CC[C@@]4(C)[C@]3(C)CC[C@H]2C(C)(C)[C@H]1OC(C)=O`: the EC50 in data set [1] came out at 10.1 µM; in data set [3], 8.3 µM; in [4] it was 8.3 µM; in data set [5] it was 8.5 µM; in data set [6], 9 µM; in data set [8] it was 9.4 µM. Further, in data set [7], a half-maximal effect (EC50 at 96 h) was put at 5.7 µM.

Consider `CC(=O)O[C@H]1C[C@]2(C)[C@H]3CC=C4[C@@H]5CC(C)(C)CC[C@]5(C(=O)O)CC[C@@]4(C)[C@]3(C)CC[C@H]2C(C)(C)[C@H]1OC(C)=O`, for which the results for the concentration giving a half-maximal response (EC50) in data set [3], in data set [6] and in [8] were 13.8 µM, 16.1 µM and 23.1 µM, respectively. Moreover, the EC50 at 96 h in [7] is above 30 µM.

Take `C[C@H]1[C@H](C)CC[C@]2(C(=O)O)CC[C@]3(C)C(=CC[C@@H]4[C@@]5(C)C[C@H](O)[C@H](O)C(C)(C)[C@@H]5CC[C@]43C)[C@H]12`: the EC50 in data set [1] is above 30 µM; in [3], above 30 µM; in data set [4] it was 24.9 µM; in data set [5], above 30 µM; in data set [6], 29.1 µM; in data set [8], above 30 µM. This compound also returned an EC50 at 96 h in data set [7] above 30 µM.

Take `CC1(C)CC[C@]2(C(=O)O)CC[C@]3(C)C(=CC[C@@H]4[C@@]5(C)C[C@H](O)[C@H](O)C(C)(C)[C@@H]5CC[C@]43C)[C@@H]2C1` [AUGUSTIC ACID]: the EC50 in data set [3] was 25.7 µM; in data set [6], 25.1 µM; in [8], above 30 µM. Further, the EC50 at 96 h in [7] was above 30 µM.

Regarding `CC(=O)O[C@H]1C[C@]2(C)[C@H]3CC=C4[C@@H]5[C@@H](C)[C@H](C)CC[C@]5(C(=O)Nc5ccc6cccnc6c5)CC[C@@]4(C)[C@]3(C)CC[C@H]2C(C)(C)[C@H]1OC(C)=O`, the EC50 was determined as 3.1 µM in data set [1]; 2.4 µM in data set [3]; 1.8 µM in data set [4]; 2.5 µM in data set [5]; 1.6 µM in [6]; 2 µM in data set [8]. Further, the solubility result in data set [2] is listed as “Insoluble”. The compound further displayed an EC50 at 96 h in [7] of 1.8 µM.

Turning to `CC(=O)O[C@H]1C[C@]2(C)[C@H]3CC=C4[C@@H]5CC(C)(C)CC[C@]5(C(=O)Nc5cccc6ncccc56)CC[C@@]4(C)[C@]3(C)CC[C@H]2C(C)(C)[C@H]1OC(C)=O`, the EC50 was 3 µM in data set [1]; 1.2 µM in data set [3]; 0.7 µM in [4]; 2.3 µM in data set [5]; 2.5 µM in [6]; 2.4 µM in [8]. In addition, the outcome (in [9]; in the data set on A2780 [10]; with A2780 [11]; in [12]; in data set [13]; in [14]) was Active. Also, in data set [15], the outcome was Active. In addition, the EC50 at 96 h in data set [7] is 8.6 µM.

`CC(=O)O[C@H]1CC[C@]2(C)[C@H]3CC=C4[C@@H]5[C@@H](C)[C@H](C)CC[C@]5(C(=O)Nc5cccc6ncccc56)CC[C@@]4(C)[C@]3(C)CC[C@H]2C1(C)C`: the EC50 in data set [1] stood at 5.1 µM; in [3] it was 3.5 µM; in data set [4], 4.4 µM; in data set [5], 3.5 µM; in data set [6], 3.9 µM; in [8] it was 5.1 µM. This compound had an EC50 at 96 h in data set [7] of 3.5 µM.

Take `CC(=O)O[C@H]1C[C@]2(C)[C@H]3CC=C4[C@@H]5CC(C)(C)CC[C@]5(C(=O)Nc5cccc6cccnc56)CC[C@@]4(C)[C@]3(C)CC[C@H]2C(C)(C)[C@H]1OC(C)=O`: the EC50 in data set [1] was above 30 µM; in data set [3], 6.2 µM; in [4] it was 5.1 µM; in data set [5], 16.1 µM; in data set [6], 24.6 µM; in data set [8], above 30 µM. Further, in data set [2], the solubility entry is “Insoluble”. For the same compound, in data set [7], the EC50 at 96 h is above 30 µM.
